Inconclusive results and toxic doses are left out. No stated cut-off is given here; in the data, active means T/C of 150% or more; inactive means T/C below 125%.
Tested on: L1210 leukemia ip in BDF1 mice, survival T/C
Assay: NCI In Vivo Anticancer Drug Screen. Data for tumor model L1210 Leukemia (intraperitoneal) in B6D2F1 (BDF1) mice
Conditions: endpoint: mean survival time, higher = longer survival
Outline: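 Mice bearing the transplanted tumor received compound or vehicle. Survival of the treated group was divided by that of the vehicle-treated control group to give the ratio.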

[1] = dose: 25.0 mg/kg/injection, schedule: Q04DX003 (ip), vehicle: saline
[2] = dose: 50.0 mg/kg/injection, schedule: Q04DX003 (ip), vehicle: saline
[3] = dose: 100.0 mg/kg/injection, schedule: Q04DX003 (ip), vehicle: saline

Measured: T/C

C=C1OC(=O)OC1(C)CC(OC)OC (stereo unspecified)
inactive: dose: 100.0 mg/kg/injection, schedule: Q01DX009 (ip), vehicle: saline with Tween-80 101 % of control | dose: 100.0 mg/kg/injection, schedule: Q04DX003 (ip), vehicle: saline with Tween-80 94 % of control | dose: 200.0 mg/kg/injection, schedule: Q01DX009 (ip), vehicle: saline with Tween-80 95 % of control | dose: 200.0 mg/kg/injection, schedule: Q04DX003 (ip), vehicle: saline with Tween-80 92 % of control | dose: 400.0 mg/kg/injection, schedule: Q01DX009 (ip), vehicle: saline with Tween-80 98 % of control | dose: 400.0 mg/kg/injection, schedule: Q04DX003 (ip), vehicle: saline with Tween-80 92 % of control

N#C/C=C/C1CCCCC1
inactive: [1] 109 % of control | [2] 107 % of control | dose: 100.0 mg/kg/injection, schedule: Q01DX001 (ip), vehicle: saline 95 % of control | [3] 105 % of control

Cc1ccc(CC(O)(CC(O)(c2ccccc2)c2ccccc2)c2ccccc2)cc1C (stereo unspecified)
inactive: dose: 75.0 mg/kg/injection, schedule: Q01DX001 (ip), vehicle: saline 92 % of control | dose: 75.0 mg/kg/injection, schedule: Q04DX003 (ip), vehicle: saline 94 % of control | dose: 150.0 mg/kg/injection, schedule: Q01DX001 (ip), vehicle: saline 92 % of control | dose: 150.0 mg/kg/injection, schedule: Q04DX003 (ip), vehicle: saline 91 % of control | dose: 300.0 mg/kg/injection, schedule: Q01DX001 (ip), vehicle: saline 90 % of control | dose: 300.0 mg/kg/injection, schedule: Q04DX003 (ip), vehicle: saline 94 % of control

CN(N=O)C(=O)C(=O)N(C)N=O
inactive: dose: 9.0 mg/kg/injection, schedule: Q01DX001 (ip), vehicle: other 109 % of control | dose: 13.0 mg/kg/injection, schedule: Q01DX001 (ip), vehicle: other 112 % of control | dose: 15.0 mg/kg/injection, schedule: Q01DX Z (ip), vehicle: saline 100 % of control | dose: 30.0 mg/kg/injection, schedule: Q01DX Z (ip), vehicle: saline 103 % of control | dose: 60.0 mg/kg/injection, schedule: Q01DX Z (ip), vehicle: saline 92 % of control | dose: 120.0 mg/kg/injection, schedule: Q01DX Z (ip), vehicle: saline 94 % of control

N#CN1CCOCC1
inactive: dose: 44.0 mg/kg/injection, schedule: Q01DX Z (ip), vehicle: saline 101 % of control | dose: 66.0 mg/kg/injection, schedule: Q01DX Z (ip), vehicle: saline 91 % of control | dose: 100.0 mg/kg/injection, schedule: Q01DX009 (ip), vehicle: saline 97 % of control | dose: 100.0 mg/kg/injection, schedule: Q01DX Z (ip), vehicle: saline 101 % of control | [3] 95 % of control | dose: 200.0 mg/kg/injection, schedule: Q01DX009 (ip), vehicle: saline 103 % of control | dose: 200.0 mg/kg/injection, schedule: Q04DX003 (ip), vehicle: saline 105 % of control

CCC[Si](Cl)(CCC)CCC
inactive: dose: 18.75 mg/kg/injection, schedule: Q01DX009 (ip), vehicle: acetone 98 % of control | dose: 37.5 mg/kg/injection, schedule: Q01DX009 (ip), vehicle: acetone 94 % of control | dose: 37.5 mg/kg/injection, schedule: Q04DX003 (ip), vehicle: acetone 99 % of control | dose: 75.0 mg/kg/injection, schedule: Q01DX001 (ip), vehicle: acetone 93 % of control | dose: 75.0 mg/kg/injection, schedule: Q01DX009 (ip), vehicle: acetone 96 % of control | dose: 75.0 mg/kg/injection, schedule: Q04DX003 (ip), vehicle: acetone 94 % of control | dose: 150.0 mg/kg/injection, schedule: Q01DX001 (ip), vehicle: acetone 101 % of control | dose: 150.0 mg/kg/injection, schedule: Q04DX003 (ip), vehicle: acetone 100 % of control | dose: 300.0 mg/kg/injection, schedule: Q01DX001 (ip), vehicle: acetone 86 % of control

NC1=NCc2ccccc21
inactive: dose: 12.5 mg/kg/injection, schedule: Q04DX003 (ip), vehicle: saline 102 % of control | [1] 93 % of control | [2] 91 % of control

Reference: PubChem BioAssay AID248 (DTP/NCI, 2004)
